According to PMC7217150, “Synthesis, Modification, and Biological Evaluation of a Library of Novel Water‐Soluble Thiopyridone‐Based Organometallic Complexes and Their Unexpected (Biological) Behavior” (Chemistry (Weinheim an Der Bergstrasse, Germany), 2020):
Like-named read-outs stand apart in the source and are kept apart here.

Assays:
SW480 cells = conditions: for Cellular accumulation: ICP‐MS, 2 h exposure, 50 μM
[1] = pH 7.2
Protocol: Stock solutions containing the desired complex in DMSO (5 mM) were diluted with phosphate buffer (pH 7.2) to a final concentration of […] compound in 1 % DMSO/20 mM buffer and directly analyzed by four different isocratic UHPLC runs (Δ=5 %). The lipophilicity parameters logkw and lipophilicity indices φ0 were calculated according to literature.7, 37

A549 [2] = test: MTT cytotoxicity assay, monolayer culture; format: cell-based, human; conditions: exposure time 96 h, means ± SDs
SW480 [3] = test: MTT cytotoxicity assay, monolayer culture; format: cell-based, human
CH1/PA‐1 [4] = test: MTT cytotoxicity assay, monolayer culture; format: cell-based, human; conditions: CH1/PA‐1, MTT assay, exposure time 96 h, means ± SDs
HCT‐116 = HCT‐116 multicellular spheroids, 96 h drug exposure
Protocol: (§1) A549, CH1/PA‐1 and SW480 cells were grown in MEM supplemented with 10 % fetal calf serum (FCS; from Biowest), 1 mM sodium pyruvate, 4 mM L‐glutamine and 1 % v/v nonessential amino acids (from 100×solution) and L‐glutamine. HCT‐116 cells were maintained in McCoy's 5a medium supplemented with 10 % FCS and L‐glutamine. Adherent monolayer cultures were grown in 75 cm^2 flasks. For spheroid culture, A549, CH1/PA‐1 and HCT‐116 cells were harvested from culture flasks by trypsinization, resuspended in their respective supplemented medium and seeded in ultra‐low attachment round‐bottom 96‐well plates (Corning Costar) at a density of 500 viable cells per well. Plates were incubated for 96 h to allow spheroid formation prior to use for the tests. All cultures were incubated in a humidified incubator at 37 °C with 5 % CO2.
(§2) Cytotoxicity in multicellular spheroids was determined by the fluorimetric resazurin assay. […] After incubation for 96 h, 20 μL of a 440 μM resazurin sodium salt solution in PBS were added to each well, and the plates were incubated for further 16 h. Fluorescence was measured with a Synergy HT reader (BioTek) with an excitation wavelength of 530 nm and emission wavelength of 590 nm. For both assays, at least three independent experiments (or two in case of poor activity) were performed, each with triplicates per concentration level, and the 50 % inhibitory concentrations (IC50) relative to untreated controls were interpolated from concentration‐effect curves.

A549 [5] = conditions: A549 multicellular spheroids, 96 h drug exposure
Protocol: as §1, §2

CH1/PA‐1 [6] = conditions: CH1/PA‐1 multicellular spheroids, 96 h drug exposure
Protocol: as §1, §2

SW480 [7] = test: Cell cycle distribution, flow cytometry with propidium iodide; format: cell-based, human; conditions: for Cell cycle distribution G1, % / Cell cycle distribution G2/M, % / Cell cycle distribution S, %: 24 h, mean ± SD; for Relative change in cell cycle distribution G1, % / Relative change in cell cycle distribution G2/M, % / Relative change in cell cycle distribution S, %: difference to untreated control
Method in brief: (§3)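 CH1/PA-1 and SW480 cells were allowed to attach for 24 h, then exposed continuously to compounds for 24 h at 37 °C. Nuclei were stained overnight at 4 °C with propidium iodide (50 μg mL^−1) in Triton/citrate buffer. 5×10^3 cells were analysed by flow cytometry, with G1/S/G2/M fractions fitted by the Watson Pragmatic model.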

CH1/PA‐1 [8] = test: as above; format: cell-based, human; conditions: for Cell cycle distribution G1, % / Cell cycle distribution G2/M, % / Cell cycle distribution S, %: 24 h, mean ± SD; for Relative change in cell cycle distribution G1, % / Relative change in cell cycle distribution G2/M, % / Relative change in cell cycle distribution S, %: difference to untreated control
Method in brief: as §3

[9] = test system: human cancer cell lines CH1/PA‐1, SW480, A549
Protocol: Cytotoxicity of the compounds in monolayer cultures was determined by the colorimetric MTT assay (MTT=3‐(4,5‐dimethyl‐2‐thiazolyl)‐2,5‐diphenyl‐2H‐tetrazolium bromide). 1×10^3 CH1/PA‐1, 2×10^3 SW480 and 3×10^3 A549 cells were seeded in 100 μL supplemented MEM per well into 96‐well flat‐bottom microculture plates. […] After 96 h, the drug‐containing medium was replaced with 100 μL of RPMI 1640/MTT mixture [6 parts of RPMI 1640 medium (supplemented with 10 % heat‐inactivated fetal bovine serum and 4 mM L‐glutamine), 1 part of MTT solution in phosphate‐buffered saline (5 mg mL^−1)]. After incubation for 4 h, the mixture was replaced with 150 μL DMSO per well to dissolve the formazan product formed by viable cells. Optical densities at 550 nm (and at a reference wavelength of 690 nm) were measured with a microplate reader (ELx808, Bio‐Tek).

[10] = SW480, MTT assay, exposure time 96 h, means ± SDs

## CC1=C2[O][Ir+]([Cl])[S]=C2C=CN1C.Cc1c(C)c(C)[c-](C)c1C [Compound 6 a, Chlorido[1,2‐dimethyl‐3‐oxo‐κO‐pyridine‐4(1H)‐thionato‐κS](η^5‐1,2,3,4,5‐pentamethylcyclopentadienyl)iridium(III)]
SW480 cells
  cellular concentration relative to 3 a: about 47 times
  Cellular accumulation: 986±152 fg/cell
[1]
  φ0 (chromatographic lipophilicity index): 5.75
A549 [2]
  IC50: 63 ± 6 µM
SW480 [3]; [10]
  IC50: 4.2 ± 0.2 µM
SW480 [3]; SW480, as listed in Table 3
  IC50: 4.18 ± 0.19 µM
CH1/PA‐1 [4]
  IC50: 7 ± 1.6 µM
HCT‐116
  IC50: 138 ± 6 µM
A549 [5]
  IC50: 270 ± 17 µM
CH1/PA‐1 [6]
  IC50: 131 ± 14 µM
SW480 [7]; SW480, 2.5 µM
  Cell cycle distribution G1, %: 48 ± 2%
  Cell cycle distribution G2/M, %: 19 ± 3%
  Cell cycle distribution S, %: 32 ± 1%
  Relative change in cell cycle distribution G1, %: 0%
  Relative change in cell cycle distribution G2/M, %: 0%
  Relative change in cell cycle distribution S, %: -1%
SW480 [7]; SW480, 5 µM
  Cell cycle distribution G1, %: 41 ± 4%
  Cell cycle distribution G2/M, %: 26 ± 5%
  Cell cycle distribution S, %: 33 ± 9%
  Relative change in cell cycle distribution G1, %: -7%
  Relative change in cell cycle distribution G2/M, %: 7%
  Relative change in cell cycle distribution S, %: 0%
SW480 [7]; SW480, 10 µM
  Cell cycle distribution G1, %: 42 ± 4%
  Cell cycle distribution G2/M, %: 17 ± 3%
  Cell cycle distribution S, %: 42 ± 3%
  Relative change in cell cycle distribution G1, %: -6%
  Relative change in cell cycle distribution G2/M, %: -2%
  Relative change in cell cycle distribution S, %: 9%
CH1/PA‐1 [8]; CH1/PA-1, 10 µM
  Cell cycle distribution G1, %: 29 ± 3%
  Cell cycle distribution G2/M, %: 26 ± 4%
  Cell cycle distribution S, %: 45 ± 8%
  Relative change in cell cycle distribution G1, %: -11%
  Relative change in cell cycle distribution G2/M, %: 2%
  Relative change in cell cycle distribution S, %: 9%
CH1/PA‐1 [8]; CH1/PA-1, 20 µM
  Cell cycle distribution G1, %: 33 ± 4%
  Cell cycle distribution G2/M, %: 26 ± 9%
  Cell cycle distribution S, %: 41 ± 10%
  Relative change in cell cycle distribution G1, %: -7%
  Relative change in cell cycle distribution G2/M, %: 2%
  Relative change in cell cycle distribution S, %: 5%
CH1/PA‐1 [8]; CH1/PA-1, 40 µM
  Cell cycle distribution G1, %: 28 ± 6%
  Cell cycle distribution G2/M, %: 26 ± 4%
  Cell cycle distribution S, %: 45 ± 5%
  Relative change in cell cycle distribution G1, %: -12%
  Relative change in cell cycle distribution G2/M, %: 2%
  Relative change in cell cycle distribution S, %: 9%

## CC1=C2[O][Ir+]([Cl])[S]=C2C=CN1Cc1ccccc1.Cc1c(C)c(C)[c-](C)c1C [Compound 6 c, Chlorido[1‐benzyl‐2‐methyl‐3‐oxo‐κO‐pyridine‐4(1H)‐thionato‐κS](η^5‐1,2,3,4,5‐pentamethylcyclopentadienyl)iridium(III)]
SW480 cells
  cellular concentration relative to 3 c: 11 times
  cellular concentration relative to 5 c: 2 times
  Cellular accumulation: 1680±333 fg/cell
[1]
  φ0 (chromatographic lipophilicity index): 6.22
A549 [2]
  IC50: 1.1 ± 0.2 µM
SW480 [3]; [10]
  IC50: 0.54 ± 0.07 µM
SW480 [3]; SW480, as listed in Table 3
  IC50: 0.54 ± 0.07 µM
CH1/PA‐1 [4]
  IC50: 0.57 ± 0.05 µM
HCT‐116
  IC50: 78 ± 2 µM
A549 [5]
  IC50: 136 ± 5 µM
CH1/PA‐1 [6]
  IC50: 114 ± 3 µM
SW480 [7]; SW480, 0.75 µM
  Cell cycle distribution G1, %: 40 ± 5%
  Cell cycle distribution G2/M, %: 24 ± 5%
  Cell cycle distribution S, %: 36 ± 2%
  Relative change in cell cycle distribution G1, %: -8%
  Relative change in cell cycle distribution G2/M, %: 5%
  Relative change in cell cycle distribution S, %: 3%
SW480 [7]; SW480, 1.25 µM
  Cell cycle distribution G1, %: 39 ± 13%
  Cell cycle distribution G2/M, %: 22 ± 3%
  Cell cycle distribution S, %: 38 ± 8%
  Relative change in cell cycle distribution G1, %: -9%
  Relative change in cell cycle distribution G2/M, %: 3%
  Relative change in cell cycle distribution S, %: 5%
SW480 [7]; SW480, 2.5 µM
  Cell cycle distribution G1, %: 43 ± 2%
  Cell cycle distribution G2/M, %: 19 ± 3%
  Cell cycle distribution S, %: 38 ± 5%
  Relative change in cell cycle distribution G1, %: -5%
  Relative change in cell cycle distribution G2/M, %: 0%
  Relative change in cell cycle distribution S, %: 5%
SW480 [7]; SW480 cells, at applicable concentrations
  decrease in G1 phase: < 9%
CH1/PA‐1 [8]; CH1/PA-1, 0.75 µM
  Cell cycle distribution G1, %: 30 ± 4%
  Cell cycle distribution G2/M, %: 32 ± 4%
  Cell cycle distribution S, %: 38 ± 3%
  Relative change in cell cycle distribution G1, %: -10%
  Relative change in cell cycle distribution G2/M, %: 8%
  Relative change in cell cycle distribution S, %: 2%
CH1/PA‐1 [8]; CH1/PA-1, 1.25 µM
  Cell cycle distribution G1, %: 30 ± 8%
  Cell cycle distribution G2/M, %: 33 ± 4%
  Cell cycle distribution S, %: 37 ± 6%
  Relative change in cell cycle distribution G1, %: -10%
  Relative change in cell cycle distribution G2/M, %: 9%
  Relative change in cell cycle distribution S, %: 1%
CH1/PA‐1 [8]; CH1/PA-1, 2.5 µM
  Cell cycle distribution G1, %: 27 ± 4%
  Cell cycle distribution G2/M, %: 34 ± 3%
  Cell cycle distribution S, %: 39 ± 4%
  Relative change in cell cycle distribution G1, %: -13%
  Relative change in cell cycle distribution G2/M, %: 10%
  Relative change in cell cycle distribution S, %: 3%
CH1/PA‐1 [8]; CH1/PA‐1 cells, 2.5 μM
  decrease in G1 phase: 13%
[9]
  cytotoxicity relative to 3 c and 4 c: up to 20 times
[9]; tested cancer cell lines
  IC50 values, in words: high nanomolar range
